Read-outs that look alike come from different tables or passages of the source.
What was measured:
HCC827/OR cells = assay: Cell viability assay (CellTiter-Glo 2.0), osimertinib-resistant HCC827/OR cells; format: cell-based, human; details: Homo sapiens, HCC827, 72 h drug treatment, read-out: Relative cell viability, IC50 HCC827OR
From the text: (§1) To explore c-MET and AXL mechanisms of EGFR TKI resistance, resistant cells of the EGFR TKI hypersensitive EGFR exon 19 mutant NSCLC cell line, HCC827 and PC9 were generated by exposing these cells to increasing concentrations of EGFR TKI for over 3 months.
(§2) Gefitinib-resistant cells were referred to as HCC827/GR. […] Osimertinib-resistant cells were referred to as HCC827/OR.

PC9/ER cells = assay: Cell viability assay (CellTiter-Glo 2.0), erlotinib-resistant PC9/ER cells; format: cell-based; details: Homo sapiens, PC-9/ER, 72 h drug treatment, read-out: Relative cell viability, IC50 PC9ER
From the text: as §1, §2

HCC827/ER cells = assay: Cell viability assay (CellTiter-Glo 2.0), erlotinib-resistant HCC827/ER cells; format: cell-based, human; details: Homo sapiens, HCC827ER, read-out: Relative cell viability
From the text: as §1, §2

HCC827/GR cells = assay: Cell viability assay (CellTiter-Glo 2.0), gefitinib-resistant HCC827/GR cells; format: cell-based, human; details: Homo sapiens, read-out: Relative cell viability, IC50 HCC827GR
From the text: as §1
The human cell line HCC827 was purchased from the American Type Culture Collection (Manassas, VA), and the PC9 cell line was obtained from RIKEN Cell Bank (Ibaraki, Japan). […] Gefitinib-resistant cells were referred to as HCC827/GR. […] Osimertinib-resistant cells were referred to as HCC827/OR.
(§3) Cell viability assays were carried out by plating 1,000 cells per well of HCC827 or PC9 resistant cells, respectively, into white transparent-bottom 384-well plates. The cells were treated with each TKI across a 10-dose range from 1 nM to 10,000 nM. After 72 h of drug treatment, cell viability was measured using the CellTiter-Glo 2.0 assay (Promega, Madison, WI).
as §3

[1] = Table 2, EGFR TKI resistant cells, combination with EGFR TKI
[2] = Table 2, 72 h drug treatment, EGFR TKI resistant cells, combination with EGFR TKI
[3] = HCC827, Table 2, 72 h drug treatment, EGFR TKI resistant cells, combination with EGFR TKI
[4] = Table 4, combinations of EGFR TKIs and inhibitor of Formula (I)
[5] = Table 4, 72 h drug treatment, combinations of EGFR TKIs and inhibitor of Formula (I)
[6] = HCC827, Table 4, 72 h drug treatment, combinations of EGFR TKIs and inhibitor of Formula (I)

`CC(C)n1cc(C(=O)Nc2ccc(Oc3ccnc(N)c3C#CC(=O)N3CCOCC3)c(F)c2)c(=O)n(-c2ccc(F)cc2)c1=O` [Example 14, N-(4-(2-amino-3-(3-morpholino-3-oxoprop-1-ynyl)pyridin-4-yloxy)-3-fluorophenyl)-3-(4-fluorophenyl)-1-isopropyl-2,4-dioxo-1,2,3,4-tetrahydropyrimidine-5-carboxamide] gave an IC50 (HCC827/OR cells; [1]) of less than 10 nM, an IC50 (PC9/ER cells; [1]) of less than 10 nM and an IC50 (HCC827/ER cells; [2]) of less than 10 nM. For the same molecule, the IC50 (HCC827/GR cells; [3]) was less than 100 nM.
`Cn1nc(C(=O)Nc2ccc(Oc3ccnc(N)c3C#CC(C)(C)N3CCNCC3)c(F)c2)c(=O)n(-c2ccc(F)cc2)c1=O` [Example 47, N-(4-(2-amino-3-(3-methyl-3-(piperazin-1-yl)but-1-ynyl)pyridin-4-yloxy)-3-fluorophenyl)-4-(4-fluorophenyl)-2-methyl-3,5-dioxo-2,3,4,5-tetrahydro-1,2,4-triazine-6-carboxamide] was tested, and the IC50 (HCC827/OR cells; [4]) was less than 10000 nM, the IC50 (PC9/ER cells; [4]) was less than 10000 nM and the IC50 (HCC827/ER cells; [5]) was less than 10000 nM. The IC50 (HCC827/GR cells; [6]) was less than 10000 nM.
For `Cc1nc(Cn2cc(C(=O)Nc3ccc(Oc4ccnc(N)c4C#CCC4CCNCC4)c(F)c3)c(=O)n(-c3ccc(F)cc3)c2=O)cs1` [Example 44, N-(4-((2-amino-3-(3-(piperidin-4-yl)prop-1-yn-1-yl)pyridin-4-yl)oxy)-3-fluorophenyl)-3-(4-fluorophenyl)-1-((2-methylthiazol-4-yl)methyl)-2,4-dioxo-1,2,3,4-tetrahydropyrimidine-5-carboxamide], the IC50 (HCC827/OR cells; [4]) was less than 1000 nM, the IC50 (PC9/ER cells; [4]) was less than 1000 nM and the IC50 (HCC827/ER cells; [5]) was less than 1000 nM. It also gave an IC50 (HCC827/GR cells; [6]) of less than 100 nM.
For `CC(C)n1cc(C(=O)Nc2ccc(Oc3ccnc(N)c3C#CCN3CCN(C)CC3)c(F)c2)c(=O)n(-c2ccc(F)cc2)c1=O` [Example 26, N-(4-(2-amino-3-(3-(4-methylpiperazin-1-yl)prop-1-ynyl)pyridine-4-yloxy)-3-fluorophenyl)-3-(4-fluorophenyl)-1-isopropyl-2,4-dioxo-1,2,3,4-tetrahydropyrimidine-5-carboxamide], the IC50 (HCC827/OR cells; [1]) was less than 10 nM, the IC50 (PC9/ER cells; [1]) was less than 1000 nM and the IC50 (HCC827/ER cells; [2]) was less than 10 nM. It also gave an IC50 (HCC827/GR cells; [3]) of less than 100 nM.
`CC(C)n1cc(C(=O)Nc2ccc(Oc3ccnc(N)c3C#CCN3CCNCC3)c(F)c2)c(=O)n(-c2ccc(F)cc2)c1=O` [Example 17] was tested, and the IC50 (HCC827/OR cells; [1]) was less than 100 nM, the IC50 (PC9/ER cells; [1]) was less than 100 nM and the IC50 (HCC827/ER cells; [2]) was less than 100 nM. The IC50 (HCC827/GR cells; [3]) was less than 100 nM.
`COCCN1CCN(C(=O)CCc2c(Oc3ccc(NC(=O)c4cn(C(C)C)c(=O)n(-c5ccc(F)cc5)c4=O)cc3F)ccnc2N)CC1` [Example 21, N-(4-(2-amino-3-(3-(4-(2-methoxyethyl)piperazin-1-yl)-3-oxopropyl)pyridin-4-yloxy)-3-fluorophenyl)-3-(4-fluorophenyl)-1-isopropyl-2,4-dioxo-1,2,3,4-tetrahydropyrimidine-5-carboxamide] was tested, and the IC50 (HCC827/OR cells; [1]) was less than 1000 nM, the IC50 (PC9/ER cells; [1]) was less than 1000 nM and the IC50 (HCC827/ER cells; [2]) was less than 1000 nM. The IC50 (HCC827/GR cells; [3]) was less than 100 nM.
In the case of `CC(C)n1cc(C(=O)Nc2ccc(Oc3ccnc(N)c3C#CC3CCN(C)CC3)c(F)c2)c(=O)n(-c2ccc(F)cc2)c1=O` [Example 23, N-(4-(2-amino-3-((1-methylpiperidin-4-yl)ethynyl)pyridin-4-yloxy)-3-fluorophenyl)-3-(4-fluorophenyl)-1-isopropyl-2,4-dioxo-1,2,3,4-tetrahydropyrimidine-5-carboxamide], the IC50 (HCC827/OR cells; [1]) is reported as less than 10 nM, the IC50 (PC9/ER cells; [1]) is reported as less than 10 nM and the IC50 (HCC827/ER cells; [2]) is reported as less than 100 nM. It also gave an IC50 (HCC827/GR cells; [3]) of less than 100 nM.
With `CC(C)N1CCC(CC#Cc2c(Oc3ccc(NC(=O)c4cn(C(C)C)c(=O)n(-c5ccc(F)cc5)c4=O)cc3F)ccnc2N)CC1` [Example 29, N-(4-(2-amino-3-(3-(1-isopropylpiperidin-4-yl)prop-1-ynyl)pyridin-4-yloxy)-3-fluorophenyl)-3-(4-fluorophenyl)-1-isopropyl-2,4-dioxo-1,2,3,4-tetrahydropyrimidine-5-carboxmide] the IC50 (HCC827/OR cells; [1]) was less than 10 nM, the IC50 (PC9/ER cells; [1]) was less than 10 nM and the IC50 (HCC827/ER cells; [2]) was less than 10 nM. For the same molecule, the IC50 (HCC827/GR cells; [3]) was less than 10 nM.
`COCCN1CCN(C(=O)/C=C/c2c(Oc3ccc(NC(=O)c4cn(C(C)C)c(=O)n(-c5ccc(F)cc5)c4=O)cc3F)ccnc2N)CC1` [Example 4, (E)-N-(4-(2-amino-3-(3-(4-(2-methoxyethyl)piperazin-1-yl)-3-oxoprop-1-enyl)pyridin-4-yloxy)-3-fluorophenyl)-3-(4-fluorophenyl)-1-isopropyl-2,4-dioxo-1,2,3,4-tetrahydropyrimidine-5-carboxamide] was tested, and the IC50 (HCC827/OR cells; [1]) was less than 10 nM, the IC50 (PC9/ER cells; [1]) was less than 1000 nM and the IC50 (HCC827/ER cells; [2]) was less than 10 nM. It also gave an IC50 (HCC827/GR cells; [3]) of less than 10 nM.
`Cc1nc(Cn2cc(C(=O)Nc3ccc(Oc4ccnc(N)c4C#CCN4CCOCC4)c(F)c3)c(=O)n(-c3ccc(F)cc3)c2=O)cs1` [Example 40, N-(4-((2-amino-3-(3-morpholinoprop-1-yn-1-yl)pyridin-4-yl)oxy)-3-fluorophenyl)-3-(4-fluorophenyl)-1-((2-methylthiazol-4-yl)methyl)-2,4-dioxo-1,2,3,4-tetrahydropyrimidine-5-carboxamide] showed an IC50 (HCC827/OR cells; [4]) of less than 1000 nM, an IC50 (PC9/ER cells; [4]) of less than 100 nM and an IC50 (HCC827/ER cells; [5]) of less than 100 nM. The IC50 (HCC827/GR cells; [6]) was less than 100 nM.
With `COCCN1CCC(CC#Cc2c(Oc3ccc(NC(=O)c4cn(C(C)C)c(=O)n(-c5ccc(F)cc5)c4=O)cc3F)ccnc2N)CC1` [Example 28, N-(4-(2-amino-3-(3-(1-(2-methoxyethyl)piperidin-4-yl)prop-1-ynyl)pyridin-4-yloxy)-3-fluorophenyl)-3-(4-fluorophenyl)-1-isopropyl-2,4-dioxo-1,2,3,4-tetrahydropyrimidine-5-carboxamide] the IC50 (HCC827/OR cells; [1]) was less than 10 nM, the IC50 (PC9/ER cells; [1]) was less than 10 nM and the IC50 (HCC827/ER cells; [2]) was less than 10 nM. For the same molecule, the IC50 (HCC827/GR cells; [3]) was less than 10 nM.
Work on `CN1CCC(CC#Cc2c(Oc3ccc(NC(=O)c4nn(C)c(=O)n(-c5ccc(F)cc5)c4=O)cc3F)ccnc2N)CC1` [Example 45, N-(4-((2-amino-3-(3-(1-methylpiperidin-4-yl)prop-1-yn-1-yl)pyridin-4-yl)oxy)-3-fluorophenyl)-4-(4-fluorophenyl)-2-methyl-3,5-dioxo-2,3,4,5-tetrahydro-1,2,4-triazine-6-carboxamide] yielded an IC50 (HCC827/OR cells; [4]) of less than 10000 nM, an IC50 (PC9/ER cells; [4]) of less than 1000 nM and an IC50 (HCC827/ER cells; [5]) of less than 1000 nM. It also gave an IC50 (HCC827/GR cells; [6]) of less than 1000 nM.
`CN(C)C(=O)Cn1cc(C(=O)Nc2ccc(Oc3ccnc(N)c3C#CCC3CCNCC3)c(F)c2)c(=O)n(-c2ccc(F)cc2)c1=O` [Example 38, N-(4-((2-amino-3-(3-(piperidin-4-yl)prop-1-yn-1-yl)pyridin-4-yl)oxy)-3-fluorophenyl)-1-(2-(dimethylamino)-2-oxoethyl)-3-(4-fluorophenyl)-2,4-dioxo-1,2,3,4-tetrahydropyrimidine-5-carboxamide] gave an IC50 (HCC827/OR cells; [4]) of less than 10000 nM, an IC50 (PC9/ER cells; [4]) of less than 10000 nM and an IC50 (HCC827/ER cells; [5]) of less than 10000 nM. The IC50 (HCC827/GR cells; [6]) was less than 10000 nM.
`CC(C)n1cc(C(=O)Nc2ccc(Oc3ccnc(N)c3-c3ccc(Oc4ccccc4)cc3)c(F)c2)c(=O)n(-c2ccc(F)cc2)c1=O` [Example 10] was tested, and the IC50 (HCC827/OR cells; [1]) was less than 1000 nM, the IC50 (PC9/ER cells; [1]) was less than 100 nM and the IC50 (HCC827/ER cells; [2]) was less than 1000 nM. For the same molecule, the IC50 (HCC827/GR cells; [3]) was less than 1000 nM.
`CC(C)n1cc(C(=O)Nc2ccc(Oc3ccnc(N)c3C#CCC3CCNCC3)c(F)c2)c(=O)n(-c2ccc(F)cc2)c1=O` [Example 27, N-(4-(2-amino-3-(3-(piperidin-4-yl)prop-1-ynyl)pyridin-4-yloxy)-3-fluorophenyl)-3-(4-fluorophenyl)-1-isopropyl-2,4-dioxo-1,2,3,4-tetrahydropyrimidine-5-carboxamide] gave an IC50 (HCC827/OR cells; [1]) of less than 10 nM, an IC50 (PC9/ER cells; [1]) of less than 10 nM and an IC50 (HCC827/ER cells; [2]) of less than 10 nM. For the same molecule, the IC50 (HCC827/GR cells; [3]) was less than 10 nM.
`CCCn1cc(C#Cc2c(Oc3ccc(NC(=O)c4cn(C(C)C)c(=O)n(-c5ccc(F)cc5)c4=O)cc3F)ccnc2N)cn1` [Example 13, N-(4-(2-amino-3-((1-propyl-1H-pyrazol-4-yl)ethynyl)pyridin-4-yloxy)-3-fluorophenyl)-3-(4-fluorophenyl)-1-isopropyl-2,4-dioxo-1,2,3,4-tetrahydropyrimidine-5-carboxamide] gave an IC50 (HCC827/OR cells; [1]) of less than 10 nM, an IC50 (PC9/ER cells; [1]) of less than 10 nM and an IC50 (HCC827/ER cells; [2]) of less than 10 nM. The IC50 (HCC827/GR cells; [3]) was less than 10 nM.
`CC(C)n1cc(C(=O)Nc2ccc(Oc3ccnc(N)c3Cl)c(F)c2)c(=O)n(-c2ccc(F)cc2)c1=O` [Example 6, N-(4-(2-amino-3-chloropyridin-4-yloxy)-3-fluorophenyl)-3-(4-fluorophenyl)-1-isopropyl-2,4-dioxo-1,2,3,4-tetrahydropyrimidine-5-carboxamide] gave an IC50 (HCC827/GR cells; HCC827, 72 h) of less than 100 nM.

— patent US12421207B2 (CMG Pharmaceutical Co., Ltd., priority 2022, dated 2025)
